The source of these data is patent publication US20170071880A1, “SELEGILINE TRANSDERMAL SYSTEM” (KAT Transdermals LLC, priority 2012, published 2017).

A short description of this data set: Solubility of selegiline in pressure sensitive adhesive polymers. Type of data set: physicochemical. From the text: The invention pertains to the transdermal delivery of selegiline for the treatment of depression, Parkinson's disease and other neurologic conditions. […] Acrylic pressure sensitive adhesives (PSAs) that could be used with the invention include those based on pure acrylate monomers as well as acrylate copolymers and terpolymers using for example as the comonomers vinyl acetate or hydrocarbon copolymers which may also include pacifiers and other pressure sensitive adhesive modifiers. Commercially available acrylate copolymers include those made by Henkel Corporation under the trade names of Duro-Tak 87-900A (DT 87-900A), 87-901A, 87-9301, 87-9088, and 87-4098. […] Of specific interest is the pressure sensitive adhesive DT 87-4098 which is the only copolymer mentioned above that contains vinyl acetate and which has low levels of peel, shear and tack which can then be enhanced by the incorporation of large amounts of plasticizing liquids such as selegiline. Since these polymers are not crosslinked, the resistance of movement of the drug through the patch itself will be very low thus enhancing the permeability through human skin. Thus it is an object of our invention to use non-crosslinked acrylate copolymer PSAs in matrix selegiline patches, especially PSA DT 87-4098, to provide for excellent permeation of selegiline through human skin. Another object of our invention is to use humectant/solubilizers in the matrix patch to provide for stabilization of the patch through absorption and immobilization of the liquids in the patch. For example such humectant/solubilizers include PVP, PVP/VA, hydroxypropylcellulose, hydroxyethylcellulose, hydroxypropylmethylcellulose, methyl cellulose, Sodium carboxymethyl cellulose, colloidal silica, Xantham Gum, and polyacrylic acid. By experiment we determined that the best humectant/solubilizer for matrix patches delivering selegiline is PVP/VA. PVP/VA has the ability to properly disperse/solubilize within the PSA matrix and to provide additional stability to the matrix, absorb the liquid selegiline base and prevent syneresis. In prior art, PVP was specifically excluded from the use in selegiline patches, which in our case, where we use non crosslinked acrylic PSAs, are shown to be very important to the development of a patch of our invention. It is another object of our invention to incorporate in the matrix PSA humectant/solubilizers, and especially PVP/VA, in the amounts of between 3 to 30% on the weight of the PSA, to provide for better syneresis, adhesion to skin and more rapid permeation of the drug through the skin. The ability of the composition of our patch is such that volatile and non-volatile enhancers can be included in the formulations, which are specifically excluded in the prior art Volatile enhancers for the case of our invention are liquids that have a vapor pressure at 20 degrees Centigrade which is higher than 0.2 mm Hg. Volatile enhancers such as Dimethylsulfoxide (DMSO), decylmethylsulfoxide lactates such as ethyl lactate and propyl lactate isobutyl lactate and lauryl lactate can be incorporated in the PSA matrix system of the selegiline patch of our invention. Thus it is another object of our invention to incorporate volatile enhancers in our patch so as to increase the permeation of selegiline through the human skin and reduce the size of the patch. […]

Molecules are shown by their SMILES.

On to `C#CCN(C)[C@H](C)Cc1ccccc1` [selegiline], for which the “solubility of selegiline in PSA” value reads like this: (in non-crosslinked acrylic copolymer PSA DT 87-4098) 59 wt %; (in non-crosslinked acrylic copolymer PSA DT 87-9088) 118 wt %; (in non-crosslinked acrylic copolymer PSA DT 87-9301) 81 wt %; (in polyisobutylene (PIB) PSA) 8 wt %; (in silicone PSA) 6 wt %.
